≈ marks a conversion by molar mass, not a printed value.
Assays:
[1] = tested on: Enterococcus faecalis; experiment: Antimicrobial activity against linezolid-resistant Enterococcus faecalis P5; format: functional
[2] = Inhibition of 50S ribosomal subunit purified from Staphylococcus aureus ATCC 29213 assessed as inhibition of translation using in vitro transcribed mRNA encoding firefly luciferase
[3] = tested on: Staphylococcus aureus; experiment: Antimicrobial activity against linezolid-,erythromycin-resistant Staphylococcus aureus A7820 with G2576U mutation at 23s rRNA; format: functional
[4] = Selectivity ratio of IC50 for […] to IC50 for Staphylococcus aureus ATCC 29213 50S ribosomal subunit
[5] = tested on: Enterococcus faecium; experiment: Antimicrobial activity against linezolid-resistant Enterococcus faecium A6349 expressing VanA gene; format: functional
[6] = tested on: Staphylococcus aureus; experiment: Antimicrobial activity against Staphylococcus aureus ATCC 29213; format: functional
[7] = Inhibition of 50S ribosomal subunit purified from linezolid-,erythromycin-resistant Staphylococcus aureus A7820 with G2576U mutation in 23s rRNA assessed as inhibition of translation using in vitro transcribed mRNA encoding firefly luciferase
[8] = tested on: Enterococcus faecalis; experiment: Antimicrobial activity against Enterococcus faecalis ATCC 29212; format: functional
[9] = biological target: Bacterial 70S ribosome; experiment: Displacement of [3H]chloramphenicol from 70S ribosomal complex in Staphylococcus aureus ATCC 29213 by competitive binding assay
[10] = biological target: Bacterial 70S ribosome; experiment: Displacement of [3H]puromycin from 70S ribosomal complex in Staphylococcus aureus ATCC 29213 by competitive binding assay

| Compound | MIC [1] | IC50 [2] | MIC [3] | ratio [4] | MIC [5] | MIC [6] | IC50 [7] | MIC [8] | IC50 [9] | IC50 [10] |
| --- | --- | --- | --- | --- | --- | --- | --- | --- | --- | --- |
| CS(=O)(=O)c1ccc([C@@H](O)[C@@H](CF)NC(=O)C(Cl)Cl)cc1 [FLORFENICOL] | 16 µg/mL (≈ 44.7 µM) | 0.7 µM | 64 µg/mL (≈ 179 µM) | > 100 | 16 µg/mL (≈ 44.7 µM) | 8 µg/mL (≈ 22.3 µM) | 16.4 µM | 4 µg/mL (≈ 11.2 µM) | 20 µM | – |
| CSC[S@@+]([O-])CC(CO)NC(=O)/C=C/c1c(C)[nH]c(=O)[nH]c1=O (some centres undefined) [SPARSOMYCIN] | – | ≤ 0.02 µM | – | 7 | – | – | – | – | – | – |
| CC(=O)NC[C@H]1CN(c2ccc(-c3ccc(Cn4ncnn4)cc3)c(F)c2)C(=O)O1 | 1 µg/mL (≈ 2.44 µM) | 0.06 µM | 1 µg/mL (≈ 2.44 µM) | 23 | 0.5 µg/mL (≈ 1.22 µM) | 0.5 µg/mL (≈ 1.22 µM) | – | 0.25 µg/mL (≈ 0.609 µM) | – | – |
| CC(=O)NC[C@H]1CN(c2ccc(N3CCOCC3)c(F)c2)C(=O)O1 [LINEZOLID] | 32 µg/mL (≈ 94.9 µM) | 0.9 µM | 64 µg/mL (≈ 190 µM) | > 100 | 16 µg/mL (≈ 47.4 µM) | – | 8.4 µM | – | 1380 µM | 920 µM |
| CC(=O)NC[C@H]1CN(c2ccc(-c3ccc(CN)cc3)c(F)c2)C(=O)O1 | 8 µg/mL (≈ 22.4 µM) | ≤ 0.02 µM | 8 µg/mL (≈ 22.4 µM) | > 100 | 1 µg/mL (≈ 2.8 µM) | 4 µg/mL (≈ 11.2 µM) | – | 0.5 µg/mL (≈ 1.4 µM) | 58 µM | – |
| CC(=O)NC[C@H]1CN(c2ccc(-c3ccc(CNCc4cnn[nH]4)cc3)c(F)c2)C(=O)O1 [RADEZOLID] | 1 µg/mL (≈ 2.28 µM) | 0.02 µM | 8 µg/mL (≈ 18.2 µM) | > 100 | 0.5 µg/mL (≈ 1.14 µM) | 1 µg/mL (≈ 2.28 µM) | 0.03 µM | 0.25 µg/mL (≈ 0.57 µM) | – | – |
| CC(=O)NC[C@H]1CN(c2ccc(-c3ccc(CNCC(N)=O)cc3)c(F)c2)C(=O)O1 | 8 µg/mL (≈ 19.3 µM) | ≤ 0.02 µM | 8 µg/mL (≈ 19.3 µM) | > 50 | 1 µg/mL (≈ 2.41 µM) | 4 µg/mL (≈ 9.65 µM) | – | 0.5 µg/mL (≈ 1.21 µM) | – | – |
| CC(=O)NC[C@H]1CN(c2ccc(-c3ccc(Cn4ccnn4)cc3)c(F)c2)C(=O)O1 | 1 µg/mL (≈ 2.44 µM) | 0.13 µM | 1 µg/mL (≈ 2.44 µM) | > 100 | 1 µg/mL (≈ 2.44 µM) | 0.5 µg/mL (≈ 1.22 µM) | 0.21 µM | 0.5 µg/mL (≈ 1.22 µM) | – | – |
| O=C(N[C@H](CO)[C@H](O)c1ccc([N+](=O)[O-])cc1)C(Cl)Cl [CHLORAMPHENICOL] | 32 µg/mL (≈ 99 µM) | 7.8 µM | 64 µg/mL (≈ 198 µM) | 25 | 24 µg/mL (≈ 74.3 µM) | 8 µg/mL (≈ 24.8 µM) | 54 µM | 8 µg/mL (≈ 24.8 µM) | 0.43 µM | – |
| CC(=O)NC[C@H]1CN(c2ccc(-c3ccc(CNC(=O)/C=C/c4c(C)[nH]c(=O)[nH]c4=O)cc3)c(F)c2)C(=O)O1 | 16 µg/mL (≈ 29.9 µM) | 0.09 µM | 8 µg/mL (≈ 14.9 µM) | 17 | 1 µg/mL (≈ 1.87 µM) | 0.25 µg/mL (≈ 0.467 µM) | 0.03 µM | 1 µg/mL (≈ 1.87 µM) | – | – |
| CC(=O)NC[C@H]1CN(c2ccc(-c3ccc(CNC(=N)N)cc3)c(F)c2)C(=O)O1 | 8 µg/mL (≈ 20 µM) | ≤ 0.02 µM | 8 µg/mL (≈ 20 µM) | > 100 | 2 µg/mL (≈ 5.01 µM) | 2 µg/mL (≈ 5.01 µM) | 0.08 µM | 2 µg/mL (≈ 5.01 µM) | 50 µM | 8.7 µM |
| CC(=O)NC[C@H]1CN(c2ccc(-c3ccc(CNCCCF)cc3)c(F)c2)C(=O)O1 | 2 µg/mL (≈ 4.79 µM) | ≤ 0.02 µM | 8 µg/mL (≈ 19.2 µM) | > 100 | 1 µg/mL (≈ 2.4 µM) | 1 µg/mL (≈ 2.4 µM) | 0.06 µM | 0.5 µg/mL (≈ 1.2 µM) | 45 µM | – |
| COc1ccc(C[C@H](N)C(=O)N[C@H]2[C@@H](O)[C@H](n3cnc4c(N(C)C)ncnc43)O[C@@H]2CO)cc1 [PUROMYCIN] | – | – | – | – | – | – | – | – | – | 0.9 µM |

From ChEMBL document CHEMBL1275513, “R chi-01, a new family of oxazolidinones that overcome ribosome-based linezolid resistance” (Antimicrob Agents Chemother, 2008)
